Test results published in patent publication US5767120A, “Tricyclic derivatives, compositions and methods of use” (Schering Corporation, priority 1995, dated 1998).

Tests used:
[1] = Inhibition of LPS/Galactosaimine-Induced Lethality (septic shock); format: in vivo, Mice (C57BI/6J males); conditions: 25 mg/kg orally or i.p. one hour before LPS (100 ng) and d-galactosamine (8 mg) i.p.; survival 24 hours after challenge
Description: This test procedure is a standard test used to determine activity against septic shock.
3. In Vivo Study: Inhibition of LPS/Galactosaimine-Induced Lethality
1) Mice (C57BI/6J males, 6-8 weeks of age) are dosed with the indicated compound (dissolved in CMC suspension vehicle; compounds are given orally or i.p. one hour before challenge with LPS and d-galactosamine).
2) Mice are challenged i.p. with a mixture of LPS (from E. coli 0111:B4; 100 ng) and d-galactosamine (8 mg).
3) Survival is determined 24 hours after challenge. See procedure published in J. Exp. Med. 165:657 (1987)

[2] = test system: serum TNF; assay: Inhibition of LPS-Induced Serum TNF; format: in vivo, Mice (C57BI/6J males); conditions: Mus musculus, 1.5 h; 25 mg/kg orally or i.p. one hour before LPS (50 μg i.p.); serum 90 min after LPS; values may be subject to a wide margin of error
Description: In addition to the in vitro test described above, the following in vivo test was also performed on several of the compounds of the present invention.
2. In Vivo Study: Inhibition of LPS-Induced Serum TNF
1) Mice (C57BI/6J males, 6-8 weeks of age) are dosed with the indicated compound (dissolved in CMC suspension vehicle; compounds are given orally or i.p. one hour before LPS challenge).
3) Mice are bled 90 min after LPS challenge.
4) Sera are analyzed for TNF content by ELISA as described in J. Immunol.

[3] = test system: TNF-α; assay: Inhibition of LPS-Induced TNF-α Production From the Murine Cell Line WEHI-265; format: cell-based; conditions: Mus musculus, WEHI-265 cells, 20-24 hours
Description: This test procedure is a standard test used to determine anti-TNF-α activity and to evaluate the usefulness of said compounds for counteracting the biological effects of TNF-α.
1. In Vitro Study: Inhibition of LPS-Induced TNF-α Production From the Murine Cell Line WEHI-265
1) Cells (obtained from cell cultures containing ≤10^6 cells/ml) are suspended at 0.2×10^6 cells/ml in complete medium (RPMI1640, with 10% FCS, 10^-5 M 2-ME, 2 mM glutamine and 10 mM HEPES buffer) and plated in CoStar 24 well plates (1.0 ml/well).
2) Compounds are dissolved in the appropriate vehicle at 400 times the concentration to be tested, and 5 μl of compound is added to the wells.
3) LPS (from E. coli 0111:B4) is diluted to 6 μg/ml and 1.0 ml is added to wells.
4) Plates are incubated 20-24 hours in 37° CO02 incubator.
5) Supernatant fluids are collected and analyzed for TNF content as described in J. ImmunoL, 142:3884.

Row | Structure (SMILES) | # dead/total at 25 mg/kg [1] | inhibition in vivo at 25 mg/kg [2] [%] | inhibition at 10 µM [3] [%]
1 | CCOC1(CCN(C)C)c2ccccc2CCc2ccccc21 [Compound IA, 5-ethoxy-5-dimethylaminoethyl-10,11-dihydro-5H-dibenzo[a,d]cycloheptene] | 0/8 | 69 | 51
2 | CCCC1(CCN(C)C)c2ccccc2CCc2ccccc21 [Compound IC, 10,11-dihydro-N,N-dimethyl-5-propyl-5H-dibenzo[a,d]cycloheptene-5-(2-ethanamine)] | 1/9 | 65 | 60
3 | C=CCC1(CCN(C)C(=O)OCC)c2ccccc2CCc2ccccc21 [Compound ICC] | – | – | 42
4 | C=CCC1(CCN(C)C)c2ccccc2CCc2ccccc21 [Compound IE, 10,11-dihydro-N,N-dimethyl-5-(2-propenyl)-5H-dibenzo[a,d]cycloheptene-5-(2-ethanamine)] | 0/9 | 48 | 67
5 | CCCC1(CCCN(C)C)c2ccccc2CCc2ccccc21 [Compound IG, 10,11-dihydro-N,N-dimethyl5-propyl-5H-dibenzo[a,d]cycloheptenep] | – | – | 60
6 | CCOC1(CCN(C)C(=O)c2ccc(C(=O)O)cc2)c2ccccc2CCc2ccccc21 [Compound IGG, 4-[[N-[2-[5-ethoxy-10,11-dihydro-5H-dibenzo[a,d]cyclohepten-5-yl]ethyl]-N-methyl]oxo]benzoic acid] | 10/10 | 0 | 4
7 | CCCC1(CN)c2ccccc2CCc2ccccc21 [Compound IH, 10,11-dihydro-5-propyl-5H-dibenzo[a,d]cycloheptene-5-methanamine] | – | – | 77
8 | CCOC1(CCN2Cc3ccccc3C2)c2ccccc2CCc2ccccc21 [Compound IL, 2-[2-[5-ethoxy-10,11-dihyd] | – | – | 53
9 | CCOC1(CCN2CCCC2)c2ccccc2COc2ccccc21 (centres unmarked) [Compound IM, 1-[2-(11-ethoxy-6,11-dihydrodibenz[b,e]oxepin-11-yl)ethyl]pyrrolidine] | 1/8 | 58 | 54
10 | CCOC1(CCN(C)S(C)(=O)=O)c2ccccc2CCc2ccccc21 [Compound IN, N-[2-(5-ethoxy-10,11-dihydro-5H-dibenzo[a,d]cycloheptenyl)ethyl]-N-methyl-methanesulfonamide] | 6/9 | – | 19
11 | CCCC1(CN(C)C)c2ccccc2CCc2ccccc21 [Compound ISS, 10,11-dihydro-N,N-dimethyl-5-propyl-5H-dibenzo[a,d]cyclohepten-5-methanamine] | – | – | 67
12 | CCOC1(CCN(C)C)c2ccccc2CCc2ccc(Cl)cc21 (centres unmarked) [Compound IS] | 3/10 | – | –
13 | C=CCC1(CC=NO)c2ccccc2CCc2ccccc21 [Compound IUU, 2-[10,11-dihydro. 5-(2-propenyl)-5H-dibenzo[a,d]cyclohepten-5-yl]-ethanone oxime] | – | – | 29
14 | CCOC1(CCNC)c2ccccc2COc2ccccc21 (centres unmarked) [Compound IU] | 8/9 | 21 | 25
15 | C=CCC1(CCN2CCCC2C(=O)O)c2ccccc2CCc2ccccc21 (centres unmarked) [Compound IVV, 1-[2-[10,11-dihydro-5-(2propenyl)-5H-dibenzo[a,d]cyclohepten-5-yl]ethyl]-2-pyrrolidinecarboxylic acid] | – | – | 14
16 | CCOC(=O)N(C)CCC1(OCC)c2ccccc2CCc2ccccc21 [Compound IV] | – | – | 34
17 | C=CCC1(CCNC)c2ccccc2CCc2ccccc21 [IAA] | 5/10 | 38 | 56
18 | CCOCC1(CCNC)c2ccccc2CCc2ccccc21 [IBB] | 10/10 | 34 | 45
19 | CCOC1(CCN(C)C)c2ccccc2COc2ccccc21 (centres unmarked) [IB] | 0/9 | 70 | 33
20 | CCCC1(CCNC)c2ccccc2CCc2ccccc21 [IDD] | 9/10 | 31 | 59
21 | CCCC1(CCN(C)C)c2ccccc2COc2ccccc21 (centres unmarked) [ID] | – | 67 | 62
22 | CCOCC1(CCN(C)C)c2ccccc2CCc2ccccc21 [IEE] | 8/10 | 38 | 23
23 | CCOC1(CCN(C)C(=O)c2ccc(C(=O)OC)cc2)c2ccccc2CCc2ccccc21 [IFF] | 9/9 | 0 | 44

Row | Structure (SMILES) | # dead/total at 25 mg/kg [1] | inhibition in vivo at 25 mg/kg [2] [%] | inhibition at 10 µM [3] [%]
24 | CN(C)CCC1(CC2CC2)c2ccccc2CCc2ccccc21 [IF] | – | 34 | 68
25 | CCOC(=O)CN(C)CCC1(OCC)c2ccccc2CCc2ccccc21 [IHH] | – | – | 40
26 | CCOC1(CCN(C)CCOCCO)c2ccccc2CCc2ccccc21 [IJJ] | – | – | 53
27 | CCOC1(CCN(C)C(C)=O)c2ccccc2CCc2ccccc21 [IJ] | 8/8 | – | 48
28 | CCOC1(CCN(C)CC(=O)O)c2ccccc2CCc2ccccc21 [IKK] | – | – | 13
29 | CCOC1(CCNC)c2ccccc2CCc2ccccc21 [IK] | 0/9 | 40 | 60
30 | C=CCC1(CCNC)c2ccccc2COc2ccccc21 (centres unmarked) [ILL] | 3/10 | 44 | 50
31 | C=CCC1(CCN(C)C)c2ccccc2COc2ccccc21 (centres unmarked) [IMM] | 0/10 | 32 | 70
32 | C=CCCC1(CCN(C)C)c2ccccc2CCc2ccccc21 [INN] | – | – | 75
33 | CN(C)CCC1(C)c2ccccc2CCc2ccccc21 [IOO] | – | – | 16
34 | C=CCC1(CCN2CCCC2)c2ccccc2CCc2ccccc21 [IO] | 5/9 | 47 | 66
35 | C=CCC1(CCN(C)C)c2ccccc2CCc2ccc(Cl)cc21 (centres unmarked) [IPP] | – | – | 52
36 | CCCC1(CCN2CCCC2)c2ccccc2CCc2ccccc21 [IP] | 9/9 | 52 | 44
37 | CCCC1(CCN(C)C)c2ccccc2CCc2ccc(Cl)cc21 (centres unmarked) [IQQ] | – | – | 42
38 | C=CCC1(CCN2CCN(C)CC2)c2ccccc2CCc2ccccc21 [IQ] | – | – | 68
39 | ON=CCC1(CC2CC2)c2ccccc2CCc2ccccc21 [IRR] | – | 38 | 48
40 | C=CCC1(CCN(C)C(C)=O)c2ccccc2CCc2ccccc21 [IR] | – | 36 | 61
41 | CCCC1(CCC=NO)c2ccccc2CCc2ccccc21 [ITT] | – | – | 4
42 | CCOC1(CCN(C)C(=O)c2cc[n+]([O-])cc2)c2ccccc2CCc2ccccc21 [IT] | 9/9 | – | 14
43 | CCOC1(CCN(C)S(=O)(=O)c2ccccc2)c2ccccc2CCc2ccccc21 [IW] | 8/10 | – | 47
44 | CCOCC1(CN)c2ccccc2CCc2ccccc21 [IX] | 9/10 | 3 | 29
45 | CCOCC1(CNC(C)=O)c2ccccc2CCc2ccccc21 [IY] | – | – | 17
46 | CCOCC1(CN(C)C)c2ccccc2CCc2ccccc21 [IZ] | 8/10 | 0 | 37
